Measured values as given in patent US9394297B2, “Amides as pim inhibitors” (AMGEN INC., priority 2012, dated 2016).
Read-outs that look alike come from different tables or passages of the source.

What was measured:
Pim-1 [1] = biological target: T1, Pim-1 (Homo sapiens (Human), UniProt P11309); assay: Pim enzyme assay (HTRF, 96-well), Pim-1; assay type: biochemical; conditions: full length recombinant Pim-1, biotinylated-BAD (S112) peptide, 10-point curve, 2 h RT, read-out: Pim-1 IC50 IP
In short: (§1)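 HTRF detection of biotinylated BAD (S112) phosphorylation by full-length recombinant His-tagged Pim-1 or Pim-2 in 60 mM Hepes pH 7.0, 0.05% BSA, 2 mM DTT at 22 °C: 2 h for Pim-1, 45 min for Pim-2. Stopped with EDTA; IC50 from 4-parameter logistic fit of percent of control.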

Pim-2 [2] = biological target: T2, Pim-2 (Homo sapiens (Human), UniProt Q9P1W9); assay: Pim enzyme assay (HTRF, 96-well), Pim-2; assay type: biochemical; conditions: full length recombinant Pim-2, biotinylated-BAD (S112) peptide, 10-point curve, 45 min RT, read-out: Pim-2 IC50 IP
In short: as §1

Pim-1 [3] = biological target: T1, Pim-1; assay: Pim-Mn enzyme assay (HTRF, 384-well), Pim-1; assay type: biochemical; conditions: Pim-1 enzyme 5 pM, ATP 1.5 μM, BAD (S112) 0.5 μM, HTRF, 22-point curve; read-out: Pim-1-Mn IC50 IP
Pim-2 [4] = biological target: T2, Pim-2; assay: Pim-Mn enzyme assay (HTRF, 384-well), Pim-2; assay type: biochemical; conditions: Pim-2 enzyme 0.5 pM, ATP 1.5 μM, BAD (S112) 0.5 μM, HTRF, 22-point curve; read-out: Pim-2-Mn IC50 IP
[5] = system: KMS-12-BM myeloma cell line; assay: Pim KMS-12 cell assay (phospho-BAD S112 / total BAD, MSD)
[6] = Homo sapiens, KMS-12-BM, read-out: KMS-12-BM IC50 IP, KMS-12-BM cells, phospho-BAD (S112) vs total BAD, 1 hour 50 min with compound

T1 sequence (P11309 whole entry): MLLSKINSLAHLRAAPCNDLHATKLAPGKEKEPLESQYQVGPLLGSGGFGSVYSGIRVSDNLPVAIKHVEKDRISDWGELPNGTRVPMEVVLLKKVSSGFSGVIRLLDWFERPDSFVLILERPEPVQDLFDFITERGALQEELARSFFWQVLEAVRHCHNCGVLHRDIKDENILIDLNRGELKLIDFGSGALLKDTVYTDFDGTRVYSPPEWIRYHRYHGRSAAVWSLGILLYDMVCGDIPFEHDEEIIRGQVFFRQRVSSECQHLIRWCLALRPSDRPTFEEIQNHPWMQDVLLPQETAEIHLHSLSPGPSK
T2 sequence (Q9P1W9 whole entry): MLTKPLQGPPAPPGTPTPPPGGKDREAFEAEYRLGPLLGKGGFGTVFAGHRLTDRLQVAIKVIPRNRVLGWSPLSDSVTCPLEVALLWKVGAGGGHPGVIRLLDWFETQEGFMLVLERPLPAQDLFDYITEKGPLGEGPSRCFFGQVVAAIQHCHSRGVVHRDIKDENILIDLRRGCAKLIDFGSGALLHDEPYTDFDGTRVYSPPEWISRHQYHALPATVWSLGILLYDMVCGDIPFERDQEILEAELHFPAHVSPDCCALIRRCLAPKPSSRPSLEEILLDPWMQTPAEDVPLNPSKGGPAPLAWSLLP

IC50 (Pim-1 [1]) [nM]	IC50 (Pim-2 [2]) [nM]	IC50 (Pim-1 [3]) [nM]	IC50 (Pim-2 [4]) [nM]	IC50 [5, 6] [nM]	IC50 ([5]; read-out: KMS-12-BM IC50 IP, KMS-12-BM cells, phospho-BAD (S112) vs total BAD, 1 hour 50 min with compound) [nM]	Structure (SMILES)
8.9	7.9	6.5	3	481		Cc1nc2cccc(-c3cc4c([nH]3)CCNC4=O)c2nc1NC1(CO)CCC1 [Example 146, 2-(3-((1-(hydroxymethyl)cyclobutyl)amino)-2-methylquinoxalin-5-yl)-6,7-dihydro-1H-pyrrolo[3,2-c]pyridin-4(5H)-one]
0.7	0.8	0.3	0.4		440	Cc1nc2cccc(-c3cc4c([nH]3)CCNC4=O)c2nc1N[C@H]1CC[C@@H](N)C1 (single isomer, unassigned) [Example 143, 2-(3-((cis-3-aminocyclopentyl)amino)-2-methylquinoxalin-5-yl)-6,7-dihydro-1H-pyrrolo[3,2-c]pyridin-4(5H)-one]
2.9	1.4	1.9	0.6	176		Cc1nc2cccc(-c3cc4c([nH]3)CCNC4=O)c2nc1NCC(C)(C)C [Example 147, 2-(2-methyl-3-(neopentylamino)quinoxalin-5-yl)-6,7-dihydro-1H-pyrrolo[3,2-c]pyridin-4(5H)-one]
3	2.8	2.5	1.7	136		Cc1nc2cccc(-c3cc4c([nH]3)CCNC4=O)c2nc1NC(C)(C)CO [Example 201, 2-(3-((1-hydroxy-2-methylpropan-2-yl)amino)-2-methylquinoxalin-5-yl)-6,7-dihydro-1H-pyrrolo[3,2-c]pyridin-4(5H)-one]
